In ChEMBL document CHEMBL5291721, “A preclinical secondary pharmacology resource illuminates target-adverse drug reaction associations of marketed drugs” (Nat Commun, 2023):

Legend:
[1] = target: Sodium-dependent dopamine transporter (Homo sapiens, UniProt Q01959)
[2] = target: T1, Alpha-1A adrenergic receptor (Homo sapiens, UniProt P35348); assay type: functional, cell-based
T1 sequence (P35348 whole entry): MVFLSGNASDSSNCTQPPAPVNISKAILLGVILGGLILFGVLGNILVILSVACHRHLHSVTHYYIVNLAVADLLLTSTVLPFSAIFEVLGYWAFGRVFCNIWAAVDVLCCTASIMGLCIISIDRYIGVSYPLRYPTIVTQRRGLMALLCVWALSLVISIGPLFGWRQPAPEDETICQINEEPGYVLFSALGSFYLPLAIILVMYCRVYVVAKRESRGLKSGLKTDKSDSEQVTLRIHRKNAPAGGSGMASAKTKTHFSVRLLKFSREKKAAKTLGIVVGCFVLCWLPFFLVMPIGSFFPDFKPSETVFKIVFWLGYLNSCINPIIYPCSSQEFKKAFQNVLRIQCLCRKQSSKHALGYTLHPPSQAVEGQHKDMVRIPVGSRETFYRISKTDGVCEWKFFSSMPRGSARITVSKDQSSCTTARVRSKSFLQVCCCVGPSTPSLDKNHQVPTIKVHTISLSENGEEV

Histamine H3 receptor = Histamine H3 receptor (Homo sapiens, UniProt Q9Y5N1)
[3] = target: T2, Alpha-2A adrenergic receptor (Homo sapiens, UniProt P08913)
T2 sequence (P08913 whole entry): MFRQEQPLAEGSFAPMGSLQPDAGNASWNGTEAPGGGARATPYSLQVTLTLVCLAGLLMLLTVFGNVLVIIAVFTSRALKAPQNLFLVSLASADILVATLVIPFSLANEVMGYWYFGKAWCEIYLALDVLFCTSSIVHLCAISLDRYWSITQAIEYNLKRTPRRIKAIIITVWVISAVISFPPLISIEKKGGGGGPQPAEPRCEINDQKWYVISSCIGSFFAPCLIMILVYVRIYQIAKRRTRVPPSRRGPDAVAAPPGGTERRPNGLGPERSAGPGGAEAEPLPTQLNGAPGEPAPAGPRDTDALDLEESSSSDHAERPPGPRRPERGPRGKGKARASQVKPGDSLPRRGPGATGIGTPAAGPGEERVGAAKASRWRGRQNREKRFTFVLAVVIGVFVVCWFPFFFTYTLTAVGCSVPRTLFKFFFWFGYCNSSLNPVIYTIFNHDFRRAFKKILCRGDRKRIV

[4] = target: 5-hydroxytryptamine receptor 2B (Homo sapiens, UniProt P41595); assay type: functional, cell-based
[5] = target: cGMP-inhibited 3',5'-cyclic phosphodiesterase 3A (Homo sapiens, UniProt Q14432); assay type: functional
Thromboxane A2 receptor [6] = target: T3, Thromboxane A2 receptor (Homo sapiens, UniProt P21731); assay type: functional, cell-based
T3 sequence (P21731 whole entry): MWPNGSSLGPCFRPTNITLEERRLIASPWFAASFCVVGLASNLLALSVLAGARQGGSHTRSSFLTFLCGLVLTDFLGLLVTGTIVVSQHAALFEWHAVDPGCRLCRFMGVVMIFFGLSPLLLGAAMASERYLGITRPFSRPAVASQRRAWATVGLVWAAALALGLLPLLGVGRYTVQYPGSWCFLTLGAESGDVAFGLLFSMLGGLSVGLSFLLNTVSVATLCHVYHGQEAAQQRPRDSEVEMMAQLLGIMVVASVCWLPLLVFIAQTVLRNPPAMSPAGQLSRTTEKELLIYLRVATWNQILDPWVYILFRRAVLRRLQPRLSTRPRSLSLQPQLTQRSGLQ

[7] = target: T4, Muscarinic acetylcholine receptor M2 (Homo sapiens, UniProt P08172)
T4 sequence (P08172 whole entry): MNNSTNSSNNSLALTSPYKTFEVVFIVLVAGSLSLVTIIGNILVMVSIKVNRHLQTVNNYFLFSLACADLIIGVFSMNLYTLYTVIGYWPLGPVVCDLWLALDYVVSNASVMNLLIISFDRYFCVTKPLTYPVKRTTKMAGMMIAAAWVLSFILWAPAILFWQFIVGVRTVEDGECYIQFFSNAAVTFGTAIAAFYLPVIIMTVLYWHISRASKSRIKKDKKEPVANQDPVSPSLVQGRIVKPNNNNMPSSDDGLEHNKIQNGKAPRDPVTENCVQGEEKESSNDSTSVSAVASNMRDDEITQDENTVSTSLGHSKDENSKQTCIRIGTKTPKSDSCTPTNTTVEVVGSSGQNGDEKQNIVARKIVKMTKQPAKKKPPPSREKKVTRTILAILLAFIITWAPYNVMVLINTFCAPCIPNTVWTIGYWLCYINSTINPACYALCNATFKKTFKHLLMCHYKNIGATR

Thromboxane A2 receptor [8] = target: T3, Thromboxane A2 receptor; assay type: functional, cell-based; remark: listed apart in the source
Progesterone receptor = target: T5, Progesterone receptor (Homo sapiens, UniProt P06401)
T5 sequence (P06401 whole entry): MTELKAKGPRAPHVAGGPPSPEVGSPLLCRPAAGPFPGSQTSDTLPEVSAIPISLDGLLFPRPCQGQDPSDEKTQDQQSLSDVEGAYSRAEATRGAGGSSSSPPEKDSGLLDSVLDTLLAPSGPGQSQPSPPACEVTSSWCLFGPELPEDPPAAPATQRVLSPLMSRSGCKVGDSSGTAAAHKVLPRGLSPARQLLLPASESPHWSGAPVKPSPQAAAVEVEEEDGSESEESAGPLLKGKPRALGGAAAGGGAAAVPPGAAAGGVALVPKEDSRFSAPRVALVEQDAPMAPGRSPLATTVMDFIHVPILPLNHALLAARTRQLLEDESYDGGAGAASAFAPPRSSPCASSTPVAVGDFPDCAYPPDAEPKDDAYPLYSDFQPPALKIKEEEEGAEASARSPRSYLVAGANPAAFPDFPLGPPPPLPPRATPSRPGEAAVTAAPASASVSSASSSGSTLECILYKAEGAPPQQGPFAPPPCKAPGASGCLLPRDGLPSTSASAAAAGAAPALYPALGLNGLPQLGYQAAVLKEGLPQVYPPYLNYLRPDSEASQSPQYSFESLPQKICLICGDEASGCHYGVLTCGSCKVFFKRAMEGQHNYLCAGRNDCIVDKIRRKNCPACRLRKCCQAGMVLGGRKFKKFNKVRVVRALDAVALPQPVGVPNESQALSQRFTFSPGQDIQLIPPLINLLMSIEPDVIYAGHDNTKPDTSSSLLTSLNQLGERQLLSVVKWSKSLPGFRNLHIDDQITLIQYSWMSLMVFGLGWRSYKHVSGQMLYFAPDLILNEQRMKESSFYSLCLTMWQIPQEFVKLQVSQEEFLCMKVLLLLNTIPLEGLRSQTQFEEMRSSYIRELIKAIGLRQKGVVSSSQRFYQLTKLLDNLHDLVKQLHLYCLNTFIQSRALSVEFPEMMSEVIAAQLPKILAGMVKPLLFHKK
Also: assay procedure not described here.

Chain of 5-hydroxytryptamine receptor 2B (P41595 whole entry): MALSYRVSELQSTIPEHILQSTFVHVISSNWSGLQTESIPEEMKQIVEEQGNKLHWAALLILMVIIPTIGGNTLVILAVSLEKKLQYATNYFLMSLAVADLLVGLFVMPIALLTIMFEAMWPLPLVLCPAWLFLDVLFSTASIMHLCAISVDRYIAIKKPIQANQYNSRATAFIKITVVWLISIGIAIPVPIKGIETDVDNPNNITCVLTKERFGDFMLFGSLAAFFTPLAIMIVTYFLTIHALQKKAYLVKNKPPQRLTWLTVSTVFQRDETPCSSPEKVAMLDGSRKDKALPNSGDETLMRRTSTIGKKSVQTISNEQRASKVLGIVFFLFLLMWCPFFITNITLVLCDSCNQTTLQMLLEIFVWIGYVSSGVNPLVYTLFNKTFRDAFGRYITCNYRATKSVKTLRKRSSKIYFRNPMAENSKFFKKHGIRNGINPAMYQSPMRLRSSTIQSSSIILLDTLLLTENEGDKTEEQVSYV
Chain of cGMP-inhibited 3',5'-cyclic phosphodiesterase 3A (Q14432 whole entry): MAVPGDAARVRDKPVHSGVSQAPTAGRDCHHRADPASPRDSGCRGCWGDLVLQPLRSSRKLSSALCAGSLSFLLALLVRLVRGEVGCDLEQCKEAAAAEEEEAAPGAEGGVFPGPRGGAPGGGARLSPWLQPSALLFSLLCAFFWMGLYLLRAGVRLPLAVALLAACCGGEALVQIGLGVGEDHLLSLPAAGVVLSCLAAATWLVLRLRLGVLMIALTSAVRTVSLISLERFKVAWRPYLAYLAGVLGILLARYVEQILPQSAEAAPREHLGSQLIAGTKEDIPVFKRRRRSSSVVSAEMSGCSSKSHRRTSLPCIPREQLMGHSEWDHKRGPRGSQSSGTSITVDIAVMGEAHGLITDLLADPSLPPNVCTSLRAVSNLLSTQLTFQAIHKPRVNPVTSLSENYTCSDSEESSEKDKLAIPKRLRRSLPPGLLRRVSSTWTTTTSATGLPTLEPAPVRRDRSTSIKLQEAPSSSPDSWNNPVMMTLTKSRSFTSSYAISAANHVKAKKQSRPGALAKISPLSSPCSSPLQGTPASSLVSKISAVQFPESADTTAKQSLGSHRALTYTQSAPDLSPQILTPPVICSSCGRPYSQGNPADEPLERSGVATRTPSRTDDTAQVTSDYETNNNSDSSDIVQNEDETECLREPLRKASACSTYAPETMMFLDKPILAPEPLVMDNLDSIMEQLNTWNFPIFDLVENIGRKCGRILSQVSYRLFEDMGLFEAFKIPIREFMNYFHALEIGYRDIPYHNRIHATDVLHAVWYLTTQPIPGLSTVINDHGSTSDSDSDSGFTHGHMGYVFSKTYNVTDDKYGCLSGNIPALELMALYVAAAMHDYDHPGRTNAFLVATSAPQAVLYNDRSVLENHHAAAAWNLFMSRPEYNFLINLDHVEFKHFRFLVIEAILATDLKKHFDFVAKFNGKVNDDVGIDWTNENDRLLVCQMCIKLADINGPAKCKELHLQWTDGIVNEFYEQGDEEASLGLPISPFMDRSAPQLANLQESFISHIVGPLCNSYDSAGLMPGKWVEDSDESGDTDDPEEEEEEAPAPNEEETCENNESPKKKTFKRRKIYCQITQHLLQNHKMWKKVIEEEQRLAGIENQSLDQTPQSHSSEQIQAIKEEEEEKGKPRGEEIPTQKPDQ
Chain of Histamine H3 receptor (Q9Y5N1 whole entry): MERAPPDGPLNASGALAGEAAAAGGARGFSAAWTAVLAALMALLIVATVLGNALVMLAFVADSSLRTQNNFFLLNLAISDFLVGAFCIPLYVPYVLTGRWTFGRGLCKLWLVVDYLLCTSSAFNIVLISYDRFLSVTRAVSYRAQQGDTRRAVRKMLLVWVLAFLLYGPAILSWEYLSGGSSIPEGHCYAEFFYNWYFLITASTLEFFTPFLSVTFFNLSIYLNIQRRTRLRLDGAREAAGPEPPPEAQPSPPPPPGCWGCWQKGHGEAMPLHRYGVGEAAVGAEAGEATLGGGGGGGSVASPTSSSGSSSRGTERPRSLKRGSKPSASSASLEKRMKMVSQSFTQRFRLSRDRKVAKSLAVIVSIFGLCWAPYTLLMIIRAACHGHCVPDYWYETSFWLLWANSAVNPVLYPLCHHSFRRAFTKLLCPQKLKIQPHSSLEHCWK
Chain of Sodium-dependent dopamine transporter (Q01959 whole entry): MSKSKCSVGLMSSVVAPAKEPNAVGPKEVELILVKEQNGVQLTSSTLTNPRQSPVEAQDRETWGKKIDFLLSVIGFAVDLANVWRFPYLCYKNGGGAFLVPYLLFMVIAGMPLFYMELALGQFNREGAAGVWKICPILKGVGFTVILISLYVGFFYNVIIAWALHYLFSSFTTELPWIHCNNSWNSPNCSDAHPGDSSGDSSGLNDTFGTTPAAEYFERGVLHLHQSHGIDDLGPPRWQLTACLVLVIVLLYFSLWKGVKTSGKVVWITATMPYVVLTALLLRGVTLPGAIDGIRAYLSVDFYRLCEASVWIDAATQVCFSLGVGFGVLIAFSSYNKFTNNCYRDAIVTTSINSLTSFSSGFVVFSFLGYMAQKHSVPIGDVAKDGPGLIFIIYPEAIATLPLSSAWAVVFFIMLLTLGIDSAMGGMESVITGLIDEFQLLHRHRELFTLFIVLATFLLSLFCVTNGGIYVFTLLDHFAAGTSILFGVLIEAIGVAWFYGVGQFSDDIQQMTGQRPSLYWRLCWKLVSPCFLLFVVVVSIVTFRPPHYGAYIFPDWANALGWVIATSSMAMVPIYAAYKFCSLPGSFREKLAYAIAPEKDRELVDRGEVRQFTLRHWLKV

| Compound | AC50 [1] [µM] | AC50 [2] [µM] | AC50 (Histamine H3 receptor) [µM] | AC50 [3] [µM] | AC50 [4] [µM] | AC50 [5] [µM] | AC50 (Thromboxane A2 receptor [6]) [µM] | AC50 [7] [µM] | AC50 (Thromboxane A2 receptor [8]) [µM] | AC50 (Progesterone receptor) [µM] |
| --- | --- | --- | --- | --- | --- | --- | --- | --- | --- | --- |
| CN(C)c1ccc(C(=C2C=CC(=[N+](C)C)C=C2)c2ccc(N(C)C)cc2)cc1 [GENTIAN VIOLET] | 3.4 | > 30 | 4.71 | 1.43 | > 30 | > 30 | 2.03 | 0.478 | > 30 | 1.67 |
| Nc1ccc(S(N)(=O)=O)cc1 [SULFANILAMIDE] | > 30 | > 30 | > 30 | > 30 | > 30 | > 30 | > 30 | > 30 | > 30 | > 30 |
